≈ marks a conversion by molar mass, not a printed value.
Tests used:
[1] = system: Neisseria meningitidis (N. meningitidis) 13090; assay: Antibacterial activity, MIC (Table 8); format: cell-based
Source text: (§1) The antibacterial activity from a microbroth dilution method may be presented as the minimum inhibitory concentration (MIC in μg/mL). The MIC value is the lowest concentration of drug which prevents macroscopically visible growth under test conditions.
(§2) Antibacterial activity of test compounds against the Gram-negative bacteria Haemophilus influenzae (H. influenzae) 49247 is shown in Table 6, Moraxella catarrhalis (M. catarrhalis) 25238 is shown in Table 7 and Neisseria meningitidis (N. meningitidis) 13090 is shown in Table 8.

[2] = system: E. coli 25922; assay: Antibacterial activity, microbroth dilution MIC (Table 1); format: cell-based, Escherichia coli; conditions: Escherichia coli; microbroth dilution; control Gram-negative E. coli 25922 strain; read-out: MIC, 25922
Summary of the method: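 In a microbroth dilution test, the minimum inhibitory concentration was defined as the lowest compound level preventing growth seen by eye, and was given in μg/mL.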

[3] = system: Haemophilus influenzae (H. influenzae) 49247; assay: Antibacterial activity, MIC (Table 6); format: cell-based
Source text: as §1, §2

[4] = system: Staphylococcus aureus (S. aureus) 29213; assay: Antibacterial activity, microbroth dilution MIC (Table 1); format: cell-based; conditions: microbroth dilution, Gram-positive S. aureus 29213, read-out: MIC, 29213
Summary of the method: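 Using broth microdilution, MIC endpoints (μg/mL) mark where visible growth no longer appears; the panel spans sensitive and control Gram-negative strains plus a Gram-positive strain.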

[5] = system: Escherichia coli (E. coli) BAS849; assay: as above; format: cell-based; conditions: microbroth dilution, super sensitive Gram-negative E. coli BAS849, read-out: MIC, BAS849
Summary of the method: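 Each strain is exposed to test compound in a microbroth dilution series; visible growth is scored macroscopically, and the lowest growth-free concentration is recorded as MIC in μg/mL.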

[6] = system: A. baumannii MXX2240; assay: Antibacterial activity, MIC, resistant strain (Table 4); format: cell-based; conditions: Acinetobacter baumannii, MXX2240; resistant A. baumannii MMX2240, multi-drug resistant clinical isolate; read-out: MIC, MMX2240
Summary of the method: (§3)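 Activity was measured by microbroth dilution. The MIC, in μg/mL, is the lowest drug concentration that prevents macroscopically visible growth under the test conditions. The resistant strains are multi-drug resistant clinical isolates.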

[7] = system: K. pneumoniae MXX1232; assay: as above; format: cell-based; conditions: Klebsiella pneumoniae, MXX1232; resistant K. pneumoniae MMX1232, multi-drug resistant clinical isolate; read-out: MIC, MMX1232
Summary of the method: as §3

[8] = system: E. coli LZ3111; assay: Antibacterial activity, MIC, quinolone resistant strain (Table 2); format: cell-based; conditions: Escherichia coli, LZ3111, read-out: MIC LZ3111
Summary of the method: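 Microbroth dilution method; MIC (μg/mL) is the lowest drug concentration preventing macroscopically visible growth under test conditions.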

[9] = system: Pseudomonas aeruginosa (P. aeruginosa) 27853; assay: Antibacterial activity, MIC (Table 5); format: cell-based; conditions: P. aeruginosa 27853, read-out: MIC, 27853
Summary of the method: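 Activity was measured by microbroth dilution. The MIC, in μg/mL, is the lowest drug concentration that prevents macroscopically visible growth under the test conditions.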

[10] = system: Klebsiella pneumoniae (K. pneumoniae) 35657; assay: Antibacterial activity, MIC (Table 4); format: cell-based; conditions: K. pneumoniae 35657, read-out: MIC, 35657
Summary of the method: as §3

[11] = system: Acinetobacter baumannii (A. baumannii) BAA747; assay: Antibacterial activity, MIC (Table 4); format: cell-based; conditions: A. baumannii BAA747, read-out: MIC, BAA747
Summary of the method: as §3

[12] = system: E. coli ELZ4251; assay: Antibacterial activity, MIC, multi-drug resistant clinical isolate (Table 3); format: cell-based; conditions: Escherichia coli
Summary of the method: (§4)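 Broth microdilution assay; MIC reported in μg/mL as the lowest drug concentration preventing macroscopically visible growth under test conditions.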

[13] = system: E. coli ELZ4000; assay: as above; format: cell-based; conditions: Escherichia coli, ELZ4000, read-out: MIC ELZ4000
Summary of the method: as §4

Compound	MIC [1] [µg/mL]	MIC [2] [µg/mL]	MIC [3] [µg/mL]	MIC [4] [µg/mL]	MIC [5] [µg/mL]	MIC [6] [µg/mL]	MIC [7] [µg/mL]	MIC [8] [µg/mL]	MIC [9] [µg/mL]	MIC [10] [µg/mL]	MIC [11] [µg/mL]	MIC [12] [µg/mL]	MIC [13] [µg/mL]
CCc1c(-c2ccc3c(c2)CCCN3C)[nH]c(=O)c(C(=O)O)c1O [Cpd 2, 5-ethyl-4-hydroxy-6-(1-methyl-1,2,3,4-tetrahydroquinolin-6-yl)-2-oxo-1,2-dihydropyridine-3-carboxylic acid]	< 1	12.5 to 150 (≈ 38.1 to 457 µM)	< 1	3.5 to 12.5 (≈ 10.7 to 38.1 µM)	< 1								
CCc1cc(C(=O)O)c(=O)[nH]c1-c1ccc2c(c1)OCCN2C [Cpd 3, 5-ethyl-6-(4-methyl-3,4-dihydro-2H-benzo[b][1,4]oxazin-7-yl)-2-oxo-1,2-dihydropyridine-3-carboxylic acid]		1 to 3.5 (≈ 3.18 to 11.1 µM)	< 1	12.5 to 150 (≈ 39.8 to 477 µM)	< 1	12.5 to 150 (≈ 39.8 to 477 µM)	12.5 to 150 (≈ 39.8 to 477 µM)	12.5 to 150 (≈ 39.8 to 477 µM)	12.5 to 150 (≈ 39.8 to 477 µM)	3.5 to 12.5 (≈ 11.1 to 39.8 µM)	3.5 to 12.5 (≈ 11.1 to 39.8 µM)	12.5 to 150 (≈ 39.8 to 477 µM)	12.5 to 150 (≈ 39.8 to 477 µM)
CCc1c(-c2ccc3c(c2)OCCN3C)[nH]c(=O)c(C(=O)O)c1O [Cpd 4, 5-ethyl-4-hydroxy-6-(4-methyl-3,4-dihydro-2H-benzo[b][1,4]oxazin-7-yl)-2-oxo-1,2-dihydropyridine-3-carboxylic acid]		3.5 to 12.5 (≈ 10.6 to 37.8 µM)	< 1	3.5 to 12.5 (≈ 10.6 to 37.8 µM)	< 1	1 to 3.5 (≈ 3.03 to 10.6 µM)	12.5 to 150 (≈ 37.8 to 454 µM)	3.5 to 12.5 (≈ 10.6 to 37.8 µM)	12.5 to 150 (≈ 37.8 to 454 µM)	3.5 to 12.5 (≈ 10.6 to 37.8 µM)	1 to 3.5 (≈ 3.03 to 10.6 µM)	3.5 to 12.5 (≈ 10.6 to 37.8 µM)	3.5 to 12.5 (≈ 10.6 to 37.8 µM)
CCc1cc(C(=O)O)c(=O)[nH]c1-c1ccc2c(ccn2CC)c1 [Cpd 9, 5-ethyl-6-(1-ethyl-1H-indol-5-yl)-2-oxo-1,2-dihydropyridine-3-carboxylic acid]		1 to 3.5 (≈ 3.22 to 11.3 µM)	< 1	12.5 to 150 (≈ 40.3 to 483 µM)	< 1			12.5 to 150 (≈ 40.3 to 483 µM)				12.5 to 150 (≈ 40.3 to 483 µM)	12.5 to 150 (≈ 40.3 to 483 µM)
CCc1c(-c2ccc3c(ccn3CC)c2)[nH]c(=O)c(C(=O)O)c1O [Cpd 10, 5-ethyl-6-(1-ethyl-1H-indol-5-yl)-4-hydroxy-2-oxo-1,2-dihydropyridine-3-carboxylic acid]	< 1	3.5 to 12.5 (≈ 10.7 to 38.3 µM)	< 1	1 to 3.5 (≈ 3.06 to 10.7 µM)	< 1			12.5 to 150 (≈ 38.3 to 460 µM)				12.5 to 150 (≈ 38.3 to 460 µM)	12.5 to 150 (≈ 38.3 to 460 µM)
CCc1c(-c2ccc3c(c2)oc(=O)n3C)[nH]c(=O)c(C(=O)O)c1O [Cpd 11, 5-ethyl-4-hydroxy-6-(3-methyl-2-oxo-2,3-dihydrobenzo[d]oxazol-6-yl)-2-oxo-1,2-dihydropyridine-3-carboxylic acid]		1 to 3.5 (≈ 3.03 to 10.6 µM)	< 1	12.5 to 150 (≈ 37.8 to 454 µM)	< 1			12.5 to 150 (≈ 37.8 to 454 µM)				12.5 to 150 (≈ 37.8 to 454 µM)	12.5 to 150 (≈ 37.8 to 454 µM)
CC(C)c1cc(C(=O)O)c(=O)[nH]c1-c1ccc2c(ccn2C)c1 [Cpd 33, 5-isopropyl-6-(1-methyl-1H-indol-5-yl)-2-oxo-1,2-dihydropyridine-3-carboxylic acid]	< 1	3.5 to 12.5 (≈ 11.3 to 40.3 µM)	< 1	12.5 to 150 (≈ 40.3 to 483 µM)	< 1			12.5 to 150 (≈ 40.3 to 483 µM)				12.5 to 150 (≈ 40.3 to 483 µM)	12.5 to 150 (≈ 40.3 to 483 µM)
Cn1ccc2cc(-c3[nH]c(=O)c(C(=O)O)cc3C3CC3)ccc21 [Cpd 35, 5-cyclopropyl-6-(1-methyl-1H-indol-5-yl)-2-oxo-1,2-dihydropyridine-3-carboxylic acid]	< 1	1 to 3.5 (≈ 3.24 to 11.4 µM)	< 1	12.5 to 150 (≈ 40.5 to 486 µM)	< 1			12.5 to 150 (≈ 40.5 to 486 µM)				12.5 to 150 (≈ 40.5 to 486 µM)	12.5 to 150 (≈ 40.5 to 486 µM)
CCc1cc(C(=O)O)c(=O)[nH]c1-c1ccc2c(c1)cc(C)n2C [Cpd 37, 6-(1,2-dimethyl-1H-indol-5-yl)-5-ethyl-2-oxo-1,2-dihydropyridine-3-carboxylic acid]	< 1	< 1	< 1	1 to 3.5 (≈ 3.22 to 11.3 µM)	< 1			12.5 to 150 (≈ 40.3 to 483 µM)				12.5 to 150 (≈ 40.3 to 483 µM)	12.5 to 150 (≈ 40.3 to 483 µM)
Cc1c(-c2ccc3c(c2)cc(CNC2CCC2)n3C)[nH]c(=O)c(C(=O)O)c1O [Cpd 354, 6-(2-((cyclobutylamino)methyl)-1-methyl-1H-indol-5-yl)-4-hydroxy-5-methyl-2-oxo-1,2-dihydropyridine-3-carboxylic acid]	< 1	1 to 3.5 (≈ 2.62 to 9.18 µM)		12.5 to 150 (≈ 32.8 to 393 µM)	< 1	< 1	12.5 to 150 (≈ 32.8 to 393 µM)	< 1	12.5 to 150 (≈ 32.8 to 393 µM)	1 to 3.5 (≈ 2.62 to 9.18 µM)	1 to 3.5 (≈ 2.62 to 9.18 µM)	< 1	3.5 to 12.5 (≈ 9.18 to 32.8 µM)
Cc1c(-c2ccc3c(c2)cc2n3CC(N)C2)[nH]c(=O)c(C(=O)O)c1O.Cl (stereo not drawn) [Cpd 412, 6-(2-amino-2,3-dihydro-1H-pyrrolo[1,2-a]indol-7-yl)-4-hydroxy-5-methyl-2-oxo-1,2-dihydropyridine-3-carboxylic acid hydrochloride]	1 to 3.5	3.5 to 12.5		12.5 to 150	1 to 3.5	12.5 to 150	12.5 to 150	1 to 3.5	12.5 to 150	3.5 to 12.5	12.5 to 150	3.5 to 12.5	3.5 to 12.5
CNC1Cc2cc3cc(-c4[nH]c(=O)c(C(=O)O)c(O)c4C)ccc3n2C1.Cl (stereo not drawn) [Cpd 415, 4-hydroxy-5-methyl-6-(2-(methylamino)-2,3-dihydro-1H-pyrrolo[1,2-a]indol-7-yl)-2-oxo-1,2-dihydropyridine-3-carboxylic acid hydrochloride]	1 to 3.5	3.5 to 12.5		12.5 to 150	1 to 3.5	3.5 to 12.5	12.5 to 150	< 1	12.5 to 150	3.5 to 12.5	12.5 to 150	1 to 3.5	3.5 to 12.5
CCc1c(-c2ccc3cc[nH]c3c2)[nH]c(=O)c(C(=O)O)c1O [Cpd 423, 5-ethyl-4-hydroxy-6-(1H-indol-6-yl)-2-oxo-1,2-dihydropyridine-3-carboxylic acid]	< 1	< 1		1 to 3.5 (≈ 3.35 to 11.7 µM)	< 1	1 to 3.5 (≈ 3.35 to 11.7 µM)	12.5 to 150 (≈ 41.9 to 503 µM)	1 to 3.5 (≈ 3.35 to 11.7 µM)	3.5 to 12.5 (≈ 11.7 to 41.9 µM)	< 1	< 1	1 to 3.5 (≈ 3.35 to 11.7 µM)	3.5 to 12.5 (≈ 11.7 to 41.9 µM)
